Data published in ChEMBL document CHEMBL1152860, “Synthesis and antiproliferative activity of 3-amino-N-phenyl-1H-indazole-1-carboxamides” (2009).
The source made the active and inactive calls. The calls are words filed in the database; no cut-off is given here.

Assays:
HT-29 = assay: Growth inhibition of human HT-29 cells after 48 hrs by SRB assay; format: functional; conditions: HT-29, 48 h
K562 [1] = assay: Cell cycle arrest in human K562 cells assessed as decrease in accumulation at G2/M phase at 1.2 uM after 24 hrs using propidium iodide staining by flow cytometry; format: functional, cell-based
COLO 205 = assay: Growth inhibition of human COLO205 cells after 48 hrs by SRB assay; format: functional; conditions: COLO 205, 48 h
SNB-19 = assay: Growth inhibition of human SNB19 cells after 48 hrs by SRB assay; format: functional; conditions: SNB-19, 48 h
SK-MEL-2 = assay: Growth inhibition of human SK-MEL-2 cells after 48 hrs by SRB assay; format: functional; conditions: SK-MEL-2, 48 h
SR [2] = assay: Growth inhibition of human SR cells after 48 hrs by SRB assay; format: functional
NCI-H322M = assay: Growth inhibition of human NCI-H322M cells after 48 hrs by SRB assay; format: functional
MOLT-4 = assay: Growth inhibition of human MOLT4 cells after 48 hrs by SRB assay; format: functional; conditions: MOLT-4, 48 h; for CC50: read-out: LC50 (the source's name)
MCF7 = assay: Growth inhibition of human MCF7 cells after 48 hrs by SRB assay; format: functional; conditions: MCF7, 48 h
IGROV-1 = assay: Growth inhibition of human IGROV1 cells after 48 hrs by SRB assay; format: functional; conditions: IGROV-1, 48 h
K562 [3] = assay: Cell cycle arrest in human K562 cells assessed as accumulation at G0/G1 phase at 1.2 uM after 24 hrs using propidium iodide staining by flow cytometry; format: functional, cell-based
RPMI-8226 = assay: Growth inhibition of human RPMI8226 cells after 48 hrs by SRB assay; format: functional; conditions: RPMI-8226, 48 h; for CC50: read-out: LC50 (the source's name)
K562 [4] = assay: Cell cycle arrest in human K562 cells assessed as decrease in accumulation at S phase at 1.2 uM after 24 hrs using propidium iodide staining by flow cytometry; format: functional, cell-based
T47D = assay: Growth inhibition of human T47D cells after 48 hrs by SRB assay; format: functional
K562 [5] = assay: Decrease in total phosphorylated retinoblastoma protein level in human K562 cells at 14 uM after 24 hrs by flow cytometry; format: functional, cell-based
SW-620 = assay: Growth inhibition of human SW620 cells after 48 hrs by SRB assay; format: functional; conditions: SW-620, 48 h
SR [6] = assay: Cell cycle arrest in human SR cells assessed as accumulation at G0/G1 phase at 0.0153 uM after 24 hrs using propidium iodide staining by flow cytometry; format: functional, cell-based
K562 [7] = assay: Cell cycle arrest in human K562 cells assessed as accumulation at G0/G1 phase at 15.9 uM after 24 hrs using propidium iodide staining by flow cytometry; format: functional, cell-based
K562 [8] = assay: Cell cycle arrest in human K562 cells assessed as decrease in accumulation at G2/M phase at 15.9 uM after 24 hrs using propidium iodide staining by flow cytometry; format: functional, cell-based
CCRF-CEM = assay: Growth inhibition of human CCRF-CEM cells after 48 hrs by SRB assay; format: functional
K562 [9] = assay: Decrease in total phosphorylated retinoblastoma protein level in human K562 cells at 34 uM after 24 hrs by flow cytometry; format: functional, cell-based
K562 [10] = assay: Cell cycle arrest in human K562 cells assessed as decrease in accumulation at S phase at 15.9 uM after 24 hrs using propidium iodide staining by flow cytometry; format: functional, cell-based
[11] = read-out: LC50 (the source's name)

Row | Structure (SMILES) | GI50 (HT-29) [µM] | GI50 (COLO 205) [µM] | GI50 (SNB-19) [µM] | GI50 (SR [2]) [µM] | GI50 (NCI-H322M) [µM] | GI50 (MOLT-4) [µM] | TGI (MOLT-4) [µM] | CC50 (MOLT-4) [µM] | GI50 (MCF7) [µM] | GI50 (IGROV-1) [µM] | GI50 (RPMI-8226) [µM] | TGI (RPMI-8226) [µM] | CC50 (RPMI-8226) [µM] | GI50 (T47D) [µM] | GI50 (SW-620) [µM] | Activity (SR [6]) | further results
1 | Nc1nn(C(=O)Nc2ccc(Cc3ccccc3)cc2)c2ccccc12 | 2.39 | 13.4 | 22.8 | 0.0153 | 27.8 | 0.636 | 20.4 | > 100 | 0.555 | 6.98 | 1.86 | 25.8 | 84 | 1.55 | 3.62 | Active | TGI (HT-29): 17.6 µM; CC50 (HT-29; [11]): 56.3 µM; Activity (K562 [1]): Active; GI50 (SK-MEL-2): 36.4 µM; TGI (SR [2]): 82.2 µM; CC50 (SR [2]; [11]): 34.8 µM; TGI (MCF7): 8.82 µM; CC50 (MCF7; [11]): 89.1 µM; Activity (K562 [3]): Active; Activity (K562 [4]): Active; TGI (T47D): > 100 µM; CC50 (T47D; [11]): > 100 µM; Activity (K562 [5]): Active
2 | CCCCOc1ccc(NC(=O)n2nc(N)c3ccccc32)cc1 | 13.5 | 13.9 | 42.7 | 16 | 20.6 | 4.48 | 46.2 | > 100 | 14.5 | 35.5 | 2.72 | 30.8 | > 100 | 14.8 | 18.3 | Active | Activity (K562 [7]): Active; Activity (K562 [8]): Active; GI50 (CCRF-CEM): 0.213 µM; LC50 (CCRF-CEM): > 100 µM; TGI (CCRF-CEM): 17.5 µM; Activity (K562 [9]): Active; Activity (K562 [10]): Active
